Results taken from patent publication US10000791B2, “Measurement method for human pancreatic lipase activity” (ASAHI KASEI PHARMA CORPORATION, priority 2013, dated 2018).
Values belong to the compound of their own block, whether it stands above or below them.

System: non-pancreatic lipase
Assay: quantitative evaluation of influence of non-pancreatic lipase (measured value versus theoretical or reference value in heparin-administered samples)
Assay type: biochemical, human
Text: Next, the influence of the non-pancreatic lipase activity was obtained as follows on the assumption that the Liquitech reagent is not influenced by the non-pancreatic lipase. First, with respect to measured values of the enzyme activity obtained in samples other than the heparin-administered samples, a regression equation (an independent variable X: enzyme activity attained by Liquitech, a dependent variable Y: enzyme activity attained by the comparative example or the present example) was obtained. Next, with respect to each heparin-administered sample, the variable Y was calculated as a theoretical value by substituting the measured value of the enzyme activity obtained by the Liquitech for the variable X of the regression equation. Thereafter, with respect to each heparin-administered sample, the actually measured value of the enzyme activity obtained by the comparative example or the present example was divided by the theoretical value of the variable Y to calculate a relative percentage (%). It is noted that the acceptable range of the influence was provisionally set as within ±20% in reference to the package insert of “Liquitech Lipase Color II” describing that the accuracy is within ±15% of known activity.
In the present example, NaGDCA was selected as the conjugated bile acid and was combined with a non-conjugated bile acid, NaDCA, (mixed in equal amounts) to examine the behavior of a heparin-administered sample with the pH of a reaction solution changed to 7.1, 7.4 and 7.6. As the buffer solution, the BES buffer was used. As samples, (four) control samples (controls each containing a pancreatic lipase), (ten) normal samples and (nine) heparin-administered samples were used. As a comparative example, NaDCA (in a concentration of 30 mmol/L in the R-1) and NaTDCA (in a concentration of 10 mmol/L in the R-1) were used as the bile acid, and the reaction solution was adjusted to pH 7.95 (the Bicine buffer). Besides, “Liquitech Lipase Color II” manufactured by Roche Diagnostics was used for verifying the effect of the present example. “Liquitech Lipase Color II” was used in accordance with the package insert, and a special calibrator was used for calculating the enzyme activity. Thereafter, in the same manner as in Example 7, with respect to each heparin-administered sample, the actually measured value of the enzyme activity obtained by the comparative example or the present example was divided by the theoretical value to calculate a relative percentage (%). The influence of the non-pancreatic lipase activity and the acceptable range of the influence were the same as those in Example 7.
As a comparative example, NaDCA and NaTDCA (respectively in concentrations of 30 mmol/L and 10 mmol/L in the R-1) were used as the bile acids, and the reaction solution was adjusted to pH 7.95 by using the Bicine buffer to measure a heparin-administered sample. […] The bile acids were used in a total concentration in the R-1 of 40 mmol/L (each in 20 mmol/L in using two of them, and each in 13.3 mmol/L in using three of them). Besides, “Liquitech Lipase Color II” manufactured by Roche Diagnostics was used for verifying the effect of the present example. “Liquitech Lipase Color II” was used in accordance with the package insert, and a special calibrator was used for calculating the enzyme activity. In each of the comparative example and the present example, the lipase activity was calculated by using a molecular extinction coefficient of 6300 L/mol·cm of the reduced NADP. Thereafter, in the same manner as in Example 7, with respect to each heparin-administered sample, the actually measured value of the enzyme activity obtained by the comparative example or the present example was divided by the theoretical value to calculate a relative percentage (%). The influence of the non-pancreatic lipase activity and the acceptable range of the influence were calculated in the same manner as in Example 7.

SMILES: C[C@H](CCC(=O)NCC(=O)[O-])[C@H]1CC[C@H]2[C@@H]3[C@H](O)C[C@@H]4C[C@H](O)CC[C@]4(C)[C@H]3CC[C@]12C.[Na+] [NaGCDCA, sodium glycochenodeoxycholate]
Measured value/theoretical value (Table 5) (sample Heparin 31, pH 7.0): 98.4% | Measured value/theoretical value (Table 5) (sample Heparin 31, pH 7.95): 311.8% | Measured value/theoretical value (Table 5) (sample Heparin 32, pH 7.0): 98.5% | Measured value/theoretical value (Table 5) (sample Heparin 32, pH 7.95): 492.8% | Measured value/theoretical value (Table 5) (sample PRECINORM, pH 7.0): 99.3% | Measured value/theoretical value (Table 5) (sample PRECINORM, pH 7.95): 107.6% | Measured value/theoretical value (Table 5) (sample PRECIPATH, pH 7.0): 100.9% | Measured value/theoretical value (Table 5) (sample PRECIPATH, pH 7.95): 111.6% | Measured value/theoretical value (Table 5) (sample Pool 1, pH 7.0): 101.8% | Measured value/theoretical value (Table 5) (sample Pool 1, pH 7.95): 99.4% | Measured value/theoretical value (Table 5) (sample Pool 2, pH 7.0): 89.8% | Measured value/theoretical value (Table 5) (sample Pool 2, pH 7.95): 126.2% | Measured value/theoretical value (Table 5) (sample Seraclear LP, pH 7.0): 87.0% | Measured value/theoretical value (Table 5) (sample Seraclear LP, pH 7.95): 60.4%

actually measured value/theoretical value (Table 4) (Average of Heparin 21-25, pH 6.2): 104.1% | actually measured value/theoretical value (Table 4) (Average of Heparin 21-25, pH 6.4): 102.7% | actually measured value/theoretical value (Table 4) (Average of Heparin 21-25, pH 6.6): 97.8% | actually measured value/theoretical value (Table 4) (Average of Heparin 21-25, pH 6.9): 94.9% | actually measured value/theoretical value (Table 4) (Average of Heparin 21-25, pH 7.2): 100.9% | actually measured value/theoretical value (Table 4) (Average of Heparin 21-25, pH 7.4): 119.2% | actually measured value/theoretical value (Table 4) (Average of Heparin 21-25, pH 7.6): 212.1% | actually measured values relative to theoretical values, average (heparin-administered samples, pH 7.4 or lower): smaller than 120.0% | actually measured value/theoretical value (Table 4) (sample Heparin 21, pH 6.2): 118.4% | actually measured value/theoretical value (Table 4) (sample Heparin 21, pH 6.4): 110.6% | actually measured value/theoretical value (Table 4) (sample Heparin 21, pH 6.6): 109.4% | actually measured value/theoretical value (Table 4) (sample Heparin 21, pH 6.9): 99.9% | actually measured value/theoretical value (Table 4) (sample Heparin 21, pH 7.2): 99.1% | actually measured value/theoretical value (Table 4) (sample Heparin 21, pH 7.4): 118.3% | actually measured value/theoretical value (Table 4) (sample Heparin 21, pH 7.6): 167.2% | actually measured value/theoretical value (Table 4) (sample Heparin 22, pH 6.2): 100.6% | actually measured value/theoretical value (Table 4) (sample Heparin 22, pH 6.4): 100.8% | actually measured value/theoretical value (Table 4) (sample Heparin 22, pH 6.6): 93.6% | actually measured value/theoretical value (Table 4) (sample Heparin 22, pH 6.9): 86.0% | actually measured value/theoretical value (Table 4) (sample Heparin 22, pH 7.2): 98.5% | actually measured value/theoretical value (Table 4) (sample Heparin 22, pH 7.4): 107.8% | actually measured value/theoretical value (Table 4) (sample Heparin 22, pH 7.6): 162.0% | actually measured value/theoretical value (Table 4) (sample Heparin 23, pH 6.2): 112.9% | actually measured value/theoretical value (Table 4) (sample Heparin 23, pH 6.4): 115.8% | actually measured value/theoretical value (Table 4) (sample Heparin 23, pH 6.6): 111.4% | actually measured value/theoretical value (Table 4) (sample Heparin 23, pH 6.9): 114.9% | actually measured value/theoretical value (Table 4) (sample Heparin 23, pH 7.2): 110.5% | actually measured value/theoretical value (Table 4) (sample Heparin 23, pH 7.4): 129.2% | actually measured value/theoretical value (Table 4) (sample Heparin 23, pH 7.6): 281.9% | actually measured value/theoretical value (Table 4) (sample Heparin 24, pH 6.2): 95.4% | actually measured value/theoretical value (Table 4) (sample Heparin 24, pH 6.4): 91.7% | actually measured value/theoretical value (Table 4) (sample Heparin 24, pH 6.6): 83.0% | actually measured value/theoretical value (Table 4) (sample Heparin 24, pH 6.9): 84.4% | actually measured value/theoretical value (Table 4) (sample Heparin 24, pH 7.2): 96.0% | actually measured value/theoretical value (Table 4) (sample Heparin 24, pH 7.4): 113.2% | actually measured value/theoretical value (Table 4) (sample Heparin 24, pH 7.6): 215.2% | actually measured value/theoretical value (Table 4) (sample Heparin 25, pH 6.2): 93.1% | actually measured value/theoretical value (Table 4) (sample Heparin 25, pH 6.4): 94.7% | actually measured value/theoretical value (Table 4) (sample Heparin 25, pH 6.6): 91.7% | actually measured value/theoretical value (Table 4) (sample Heparin 25, pH 6.9): 89.5% | actually measured value/theoretical value (Table 4) (sample Heparin 25, pH 7.2): 100.2% | actually measured value/theoretical value (Table 4) (sample Heparin 25, pH 7.4): 127.4% | actually measured value/theoretical value (Table 4) (sample Heparin 25, pH 7.6): 234.4%
SMILES: C[C@H](CCC(=O)NCCS(=O)(=O)[O-])[C@H]1CC[C@H]2[C@@H]3CC[C@@H]4C[C@H](O)CC[C@]4(C)[C@H]3C[C@H](O)[C@]12C.[Na+] [NaTDCA, sodium taurodeoxycholate]
